Laboratory results: ChEMBL document CHEMBL1201862, “PubChem BioAssay data set” (2004)
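48-hour exposure; five concentrations; linearly interpolated endpoints. GI50 marks 50% less growth.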 Active and inactive are the calls of the source. Rule as the data show it: active = GI50 up to about 1.1 µM and inactive = higher.

Assays:
Test in all cases: NCI anticancer screen, dose series, 48 h
CAKI-1 = system: CAKI-1
CCRF-CEM = system: CCRF-CEM
COLO 205 = system: COLO 205
HCC 2998 = system: HCC 2998
HCT-15 = system: HCT-15
HL-60 = system: HL-60
HOP-62 = system: HOP-62
HT-29 = system: HT-29
K562 = system: K562
LOX IMVI = system: LOX IMVI
MCF7 = system: MCF7
MDA-MB-435 = system: MDA-MB-435
MDA-N = system: MDA-N
Malme-3M = system: Malme-3M
OVCAR-3 = system: OVCAR-3
SF-268 = system: SF-268
SF-539 = system: SF-539
SK-OV-3 = system: SK-OV-3
SNB-19 = system: SNB-19
UO-31 = system: UO-31

Compound | GI50 (CAKI-1) | GI50 (CCRF-CEM) | GI50 (COLO 205) | GI50 (HCC 2998) | GI50 (HCT-15) [µM] | GI50 (HL-60) | GI50 (HOP-62) | GI50 (HT-29) | GI50 (K562) | GI50 (LOX IMVI) | GI50 (MCF7) | GI50 (MDA-MB-435) | GI50 (MDA-N) | GI50 (Malme-3M) | GI50 (OVCAR-3) | GI50 (SF-268) | GI50 (SF-539) | GI50 (SK-OV-3) | GI50 (SNB-19) | GI50 (UO-31)
O=C1C=C(OCCCl)C(=O)c2c(O)ccc(O)c21 | 2.03 µM (inactive) | 0.469 µM (active) | 0.181 µM (active) | 1.63 µM (inactive) | 0.209 | 1.11 µM (active) | 0.589 µM (active) | 0.378 µM (active) | 2.25 µM (inactive) | 0.202 µM (active) | 0.216 µM (active) | 0.204 µM (active) | 0.17 µM (active) | 0.175 µM (active) | 1.06 µM (active) | 0.931 µM (active) | 1.36 µM (inactive) | 1.71 µM (inactive) | 1.02 µM (active) | 1.42 µM (inactive)
Cc1ccc(O)c(C2=CC3=NNC(=O)C3C(c3cccc(Cl)c3)C2)c1 (stereo not given) | 32.5 µM (inactive) | 31.6 µM (inactive) | 16 µM (inactive) | 20.7 µM (inactive) | 30.6 | 51.9 µM (inactive) | 58.9 µM (inactive) | 25.9 µM (inactive) | 37.1 µM (inactive) | 23 µM (inactive) | 17.7 µM (inactive) | 32.7 µM (inactive) | 29.5 µM (inactive) | 35.3 µM (inactive) | 26.4 µM (inactive) | 30.5 µM (inactive) | 45.2 µM (inactive) | 23.9 µM (inactive) | 50.6 µM (inactive) | 71.6 µM (inactive)
O=C(c1ccsc1)c1cc2c(s1)C(=O)c1ccsc1C2=O | 0.499 µM (active) | 0.155 µM (active) | 1.51 µM (inactive) | 0.537 µM (active) | 0.155 | 1.48 µM (inactive) | 0.168 µM (active) | 0.676 µM (active) | 0.184 µM (active) | 0.0211 µM (active) | 0.182 µM (active) | 0.0271 µM (active) | 0.0237 µM (active) | 0.0202 µM (active) | 0.0624 µM (active) | 0.165 µM (active) | 0.0671 µM (active) | 1.61 µM (inactive) | 0.177 µM (active) | 0.0893 µM (active)
Oc1cc(Br)cc2cccnc12 | 3.15 µM (inactive) | 0.597 µM (active) | 11.6 µM (inactive) | 28.2 µM (inactive) | 0.697 | 0.237 µM (active) | 5.31 µM (inactive) | 8.22 µM (inactive) | 0.82 µM (active) | 0.908 µM (active) | 0.964 µM (active) | 7.29 µM (inactive) | 8.28 µM (inactive) | 3.05 µM (inactive) | 1.05 µM (active) | 0.698 µM (active) | 2.16 µM (inactive) | 27.6 µM (inactive) | 15.6 µM (inactive) | 1.5 µM (inactive)
c1ccc2sc(C3(N4CCCCC4)CCCC3)cc2c1 | 18.1 µM (inactive) | 3.5 µM (inactive) | 5.53 µM (inactive) | 3.85 µM (inactive) | 5.92 | 4.69 µM (inactive) | 15 µM (inactive) | 3.24 µM (inactive) | 6.61 µM (inactive) | 17.9 µM (inactive) | 8.02 µM (inactive) | 14.9 µM (inactive) | 17.4 µM (inactive) | 13.8 µM (inactive) | 8.69 µM (inactive) | 11.4 µM (inactive) | 16.1 µM (inactive) | 15.9 µM (inactive) | 13.8 µM (inactive) | 16.9 µM (inactive)
CCOc1ccc(C2Oc3c(cccc3OC)C=C2[N+](=O)[O-])cc1OCC (stereo not given) | 2.94 µM (inactive) | 1.35 µM (inactive) | 3.68 µM (inactive) | 20.7 µM (inactive) | 4.86 | 2.14 µM (inactive) | 12.6 µM (inactive) | 2.86 µM (inactive) | 1.87 µM (inactive) | 1.97 µM (inactive) | 3.52 µM (inactive) | 2.82 µM (inactive) | 2.04 µM (inactive) | 2.3 µM (inactive) | 4.91 µM (inactive) | 11.6 µM (inactive) | 2.39 µM (inactive) | 27.5 µM (inactive) | 15.2 µM (inactive) | 2.64 µM (inactive)
CC(C)(C)OC(=O)N/C=C1\C(=O)Oc2ccccc2C1=O | 15 µM (inactive) | > 100 µM (inactive) | 51.1 µM (inactive) | 54 µM (inactive) | 11.3 | > 100 µM (inactive) | 17.1 µM (inactive) | > 100 µM (inactive) | > 100 µM (inactive) | 37.8 µM (inactive) | 70.8 µM (inactive) | 39.2 µM (inactive) | 34.5 µM (inactive) | 31.3 µM (inactive) | 29.7 µM (inactive) | 25.2 µM (inactive) | 14.7 µM (inactive) | 0.0294 µM (active) | 38 µM (inactive) | 0.082 µM (active)
CCOC(=O)C1C(=O)CC1(C)C (stereo not given) | > 10 µM (inactive) | > 10 µM (inactive) | > 10 µM (inactive) | > 10 µM (inactive) | > 10 | > 10 µM (inactive) | > 10 µM (inactive) | > 10 µM (inactive) | > 10 µM (inactive) | > 10 µM (inactive) | > 10 µM (inactive) | > 10 µM (inactive) | > 10 µM (inactive) | > 10 µM (inactive) | > 10 µM (inactive) | > 10 µM (inactive) | > 10 µM (inactive) | > 10 µM (inactive) | > 10 µM (inactive) | > 10 µM (inactive)
O=c1oc2ccc([N+](=O)[O-])cc2c(Nc2ccc3c(c2)S(=O)(=O)c2ccccc2O3)c1[N+](=O)[O-] | > 100 µM (inactive) | 38.3 µM (inactive) | > 100 µM (inactive) | 26.5 µM (inactive) | 83 | > 100 µM (inactive) | 49.9 µM (inactive) | 65.9 µM (inactive) | 33 µM (inactive) | 78.2 µM (inactive) | > 100 µM (inactive) | > 100 µM (inactive) | 68.1 µM (inactive) | > 100 µM (inactive) | 69.3 µM (inactive) | 88.5 µM (inactive) | 46.8 µM (inactive) | > 100 µM (inactive) | 77.1 µM (inactive) | 53.3 µM (inactive)
CCOC(=O)C(=C(SC)SC)c1nn2c(=O)cc(C)nc2s1 | 24.6 µM (inactive) | 22.6 µM (inactive) | 18.6 µM (inactive) | 18.8 µM (inactive) | 17.1 | 17.4 µM (inactive) | > 100 µM (inactive) | 20.9 µM (inactive) | 19.2 µM (inactive) | 15.7 µM (inactive) | 20.5 µM (inactive) | 16.6 µM (inactive) | 16.4 µM (inactive) | 15.9 µM (inactive) | 18.7 µM (inactive) | 22.1 µM (inactive) | 18.2 µM (inactive) | 69.7 µM (inactive) | 27.2 µM (inactive) | 19.5 µM (inactive)
CCCCC1Nc2ccccc2-c2ccnc(Cl)c21 (stereo not given) | 3.61 µM (inactive) | 19.1 µM (inactive) | 15.7 µM (inactive) | 38.7 µM (inactive) | 16.9 | 17.8 µM (inactive) | 19.3 µM (inactive) | 10.8 µM (inactive) | 20.9 µM (inactive) | 16.6 µM (inactive) | 35 µM (inactive) | 16.1 µM (inactive) | 15.6 µM (inactive) | 20.8 µM (inactive) | 11.1 µM (inactive) | 23.1 µM (inactive) | 19.2 µM (inactive) | 20.3 µM (inactive) | 24.1 µM (inactive) | 20 µM (inactive)
C#CCC(O)c1ccc(OC)c(OCc2ccccc2)c1 (stereo not given) | > 100 µM (inactive) | 26.7 µM (inactive) | > 100 µM (inactive) | > 100 µM (inactive) | > 100 | > 100 µM (inactive) | > 100 µM (inactive) | > 100 µM (inactive) | 61.9 µM (inactive) | > 100 µM (inactive) | > 100 µM (inactive) | > 100 µM (inactive) | > 100 µM (inactive) | > 100 µM (inactive) | > 100 µM (inactive) | > 100 µM (inactive) | > 100 µM (inactive) | > 100 µM (inactive) | > 100 µM (inactive) | > 100 µM (inactive)
C=C1C(=O)O[C@@H]2/C=C(\C)CC/C=C(/COC(C)=O)C[C@@H](OC(C)=O)[C@@H]12 | 7.48 µM (inactive) | 0.718 µM (active) | 3.44 µM (inactive) | 16.5 µM (inactive) | 3.28 | 2.03 µM (inactive) | 22.9 µM (inactive) | 4.24 µM (inactive) | 3.21 µM (inactive) | 5.19 µM (inactive) | 3.71 µM (inactive) | 14.2 µM (inactive) | 6 µM (inactive) | 1.46 µM (inactive) | 4.49 µM (inactive) | 11.3 µM (inactive) | 16.2 µM (inactive) | 40.6 µM (inactive) | 29.2 µM (inactive) | 8.87 µM (inactive)
Cc1ccc(S(=O)(=O)N2CCCC2C(=O)O[C@H]2CC[C@H]3CC=C[C@H]32)cc1 (stereo not given in full) | > 100 µM (inactive) | 13.8 µM (inactive) | > 10 µM (inactive) | 67.6 µM (inactive) | > 10 | > 10 µM (inactive) | 45.4 µM (inactive) | 40.3 µM (inactive) | 14.9 µM (inactive) | 20.7 µM (inactive) | 26.4 µM (inactive) | 80.2 µM (inactive) | > 69.8 µM (inactive) | 47.1 µM (inactive) | > 100 µM (inactive) | > 100 µM (inactive) | > 10 µM (inactive) | 33.7 µM (inactive) | 76.9 µM (inactive) | 29.9 µM (inactive)
